Data as given in patent US7943770B2, “Fused quinoline derivative and use thereof” (Takeda Pharmaceutical Company Limited, priority 2004, dated 2011).

Target: T1, hNK2 receptor (Homo sapiens, UniProt P21452)
T1 construct: host or cells: CHO cells
T1 sequence (P21452 1-398): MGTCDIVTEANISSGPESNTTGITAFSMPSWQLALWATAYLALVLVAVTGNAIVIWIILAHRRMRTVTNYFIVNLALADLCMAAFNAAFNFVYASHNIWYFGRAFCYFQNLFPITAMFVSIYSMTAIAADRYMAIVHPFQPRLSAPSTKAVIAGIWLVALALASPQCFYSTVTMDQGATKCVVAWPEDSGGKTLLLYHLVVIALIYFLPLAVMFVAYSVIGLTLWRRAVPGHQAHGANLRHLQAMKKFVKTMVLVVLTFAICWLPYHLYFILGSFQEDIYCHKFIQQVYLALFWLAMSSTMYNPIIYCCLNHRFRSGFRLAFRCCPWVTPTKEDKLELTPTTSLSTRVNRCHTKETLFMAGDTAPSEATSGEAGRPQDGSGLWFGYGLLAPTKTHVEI
Assay: Radio-ligand ([125I]-NKA) receptor binding inhibitory activity using membrane fraction of hNK2 receptor-expressing CHO cell
Conditions: membrane fraction of hNK2 receptor-expressing CHO cells, 25° C., 30 min
Protocol: hNK2 receptor-expressing CHO cells (produced by EUROSCREEN) were cultured in HAM-F12 medium containing 400 μg/ml Geneticin, 100 U/mL penicillin, 100 μg/mL streptomycin and 10% inactivated serum. The medium was removed and adhered cells were washed with PBS, and PBS containing 5 mM EDTA was added to detach the cells from the flask. The cells were recovered by centrifugation, suspended in suspending buffer A (15 mM Tris-HCl (pH 7.5), 2 mM MgCl2, 0.3 mM EDTA, 1 mM EGTA), disrupted by POLYTRON homogenizer (manufactured by KINEMATICA) and centrifuged at 800×g for 10 min. The supernatant was recovered and ultracentrifuged at 100000×g for 25 min. The precipitated fraction was suspended in suspending buffer B (7.5 mM Tris-HCl (pH 7.5), 12.5 mM MgCl2, 0.3 mM EDTA, 1 mM, […], 250 mM Sucrose) and cryopreserved (at −80° C.) as a receptor specimen.
An assay buffer (50 μl, 50 mM Tris-HCl (pH 7.4), 0.02% bovine serum albumin, 2 μg/mL chymostatin, 40 μg/mL bacitracin, 40 μg/mL APMSF, 3 mM MnCl2) was added to a 96 well microassay plate. Thereto was added a 20 μg/mL membrane specimen suspended in the assay buffer (50 μL). An assay buffer (50 μL) containing 2% dimethyl sulfoxide was added to examine the total binding, 4 unlabeled NKA (produced by Peptide Institute, Inc.) solution (50 μL) diluted with an assay buffer containing 2% dimethyl sulfoxide was added to examine non-specific binding, and a test compound diluted with an assay buffer (50 containing 2% dimethyl sulfoxide) was added to examine the binding inhibitory activity of the test compound. Furthermore, […] [^125I]-NKA (produced by Amersham Biosciences) solution (50 μL) was added to each well.
After reaction at 25° C. for 30 min., the reaction was stopped by rapid filtration on a unifilter plate (GF/C) (manufactured by PerkinElmer) using a cell harvester (manufactured by PerkinElmer) and the cells were washed 5 times with 50 mM Tris-HCl (pH 7.4) buffer containing 0.02% bovine serum albumin (250 μL). The GF/C filter plate was dried and 20 μl, of MicroScinti-O (manufactured by PerkinElmer) was added and the radioactivity was measured in Topcount (manufactured by PerkinElmer). The GF/C filter plate, which had been immersed in 0.3% polyethyleneimine for one day, was used. Specific binding is shown by the value obtained by subtracting non-specific binding from the total binding. The binding inhibitory activity of the test compound is shown by the ratio of the value obtained by subtracting the measured value associated with the addition of the test compound from the total binding, to the value of the specific binding.

Row | SMILES | IC50 [µM]
1 | C[C@]12CCN(C(=O)[C@H]3CCCC[C@H]3NC(=O)c3ccccc3)[C@H]1c1ccccc1N[C@H]2c1ccccc1 [Example 83, N-((1R,2S)-2-{[(3aR,4S,9bR)-3a-Methyl-4-phenyl-2,3,3a,4,5,9b-hexahydro-1H-pyrrolo[3,2-c]quinolin-1-yl]carbonyl}cyclohexyl)benzamide] | < 0.01
2 | O=C(N[C@@H]1CCCC[C@@H]1C(=O)N1CC[C@@H]2[C@H](c3ccccc3)Nc3ccccc3[C@@H]21)N1CCC(c2ccccc2)CC1 [Example 172, 4-Phenyl-N-((1R,2S)-2-{[(3aR,4R,9bR)-4-phenyl-2,3,3a,4,5,9b-hexahydro-1H-pyrrolo[3,2-c]quinolin-1-yl]carbonyl}cyclohexyl)piperidine-1-carboxamide] | < 0.01
3 | O=C(Nc1cccnc1)N[C@@H]1CCCC[C@@H]1C(=O)N1CC[C@@H]2[C@H](c3ccccc3)Nc3ccccc3[C@@H]21 [Example 171, N-((1R,2S)-2-{[(3aR,4R,9bR)-4-Phenyl-2,3,3a,4,5,9b-hexahydro-1H-pyrrolo[3,2-c]quinolin-1-yl]carbonyl}cyclohexyl)-N′-pyridin-3-ylurea] | < 0.01
4 | O=C(NCCc1ccccn1)N[C@@H]1CCCC[C@@H]1C(=O)N1CC[C@@H]2[C@H](c3ccccc3)Nc3ccccc3[C@@H]21 [Example 164, N-((1R,2S)-2-{[(3aR,4R,9bR)-4-Phenyl-2,3,3a,4,5,9b-hexahydro-1H-pyrrolo[3,2-c]quinolin-1-yl]carbonyl}cyclohexyl)-N′-(2-pyridin-2-ylethyl)urea] | < 0.001
5 | O=C(N[C@@H]1CCCC[C@@H]1C(=O)N1CC[C@@H]2C(C3CCOCC3)Nc3ccccc3[C@@H]21)c1ccccc1 (stereo in doubt) [Example 79, N-((1R,2S)-2-{[(3aR,4R,9bR)-4-Tetrahydro-2H-pyran-4-yl-2,3,3a,4,5,9b-hexahydro-1H-pyrrolo[3,2-c]quinolin-1-yl]carbonyl}cyclohexyl)benzamide] | < 0.01
6 | COC[C@@H]1Nc2ccccc2[C@H]2[C@@H]1CCN2C(=O)[C@H]1CCCC[C@H]1NC(=O)c1ccc(-n2ccnc2C)nc1 [Example 287, N-((1R,2S)-2-{[(3aR,4R,9bR)-4-(Methoxymethyl)-2,3,3a,4,5,9b-hexahydro-1H-pyrrolo[3,2-c]quinolin-1-yl]carbonyl}cyclohexyl)-6-(2-methyl-1H-imidazol-1-yl)nicotinamide] | < 0.01
7 | COC[C@@H]1Nc2ccccc2[C@H]2[C@@H]1CCN2C(=O)[C@H]1CCCC[C@H]1NC(=O)c1ccc(-n2ccnc2)cc1 [Example 250, 4-(1H-Imidazol-1-yl)-N-((1R,2S)-2-{[(3aR,4R,9bR)-4-(methoxymethyl)-2,3,3a,4,5,9b-hexahydro-1H-pyrrolo[3,2-c]quinolin-1-yl]carbonyl}cyclohexyl)benzamide] | < 0.001
8 | CCCCNC(=O)N[C@@H]1CCCC[C@@H]1C(=O)N1CC[C@@H]2[C@H](c3ccccc3)Nc3ccccc3[C@@H]21 [Example 153, N-Butyl-N′-((1R,2S)-2-{[(3aR,4R,9bR)-4-phenyl-2,3,3a,4,5,9b-hexahydro-1H-pyrrolo[3,2-c]quinolin-1-yl]carbonyl}cyclohexyl)urea] | < 0.001
9 | COC[C@@H]1Nc2ccccc2[C@H]2[C@@H]1CCN2C(=O)[C@H]1CCCC[C@H]1NC(=O)c1ccc(-n2ccnc2C)cc1 [Example 271, N-((1R,2S)-2-{[(3aR,4R,9bR)-4-(Methoxymethyl)-2,3,3a,4,5,9b-hexahydro-1H-pyrrolo[3,2-c]quinolin-1-yl]carbonyl}cyclohexyl)-4-(2-methyl-1H-imidazol-1-yl)benzamide] | < 0.01
10 | O=C(N[C@@H]1CCCC[C@@H]1C(=O)N1CC[C@@H]2[C@H](c3ncc[nH]3)Nc3ccccc3[C@@H]21)c1ccc2[nH]nnc2c1 [Example 310, N-((1R,2S)-2-{[(3aR,4R,9bR)-4-(1H-Imidazol-2-yl)-2,3,3a,4,5,9b-hexahydro-1H-pyrrolo[3,2-c]quinolin-1-yl]carbonyl}cyclohexyl)-1H-1,2,3-benzotriazole-5-carboxamide] | < 0.001
11 | NC(=O)c1ccc(C(=O)N[C@@H]2CCCC[C@@H]2C(=O)N2CC[C@@H]3[C@H](c4ccc[nH]4)Nc4ccccc4[C@@H]32)cc1 [Example 323, N-((1R,2S)-2-{[(3aR,4R,9bR)-4-(1H-Pyrrol-2-yl)-2,3,3a,4,5,9b-hexahydro-1H-pyrrolo[3,2-c]quinolin-1-yl]carbonyl}cyclohexyl)terephthalamide] | < 0.001
12 | COc1ccc(NC(=O)N[C@@H]2CCCC[C@@H]2C(=O)N2CC[C@@H]3[C@H](C4CC4)Nc4ccccc4[C@@H]32)cc1 [Example 184, N-((1R,2S)-2-{[(3aR,4S,9bR)-4-Cyclopropyl-2,3,3a,4,5,9b-hexahydro-1H-pyrrolo[3,2-c]quinolin-1-yl]carbonyl}cyclohexyl)-N′-(4-methoxyphenyl)urea] | < 0.001
13 | O=C(/C=C/c1ccccc1)N[C@@H]1CCCC[C@@H]1C(=O)N1CC[C@@H]2[C@H](c3ccccc3)Nc3ccccc3[C@@H]21 [Example 101, (2E)-3-Phenyl-N-((1R,2S)-2-{[(3aR,4R,9bR)-4-phenyl-2,3,3a,4,5,9b-hexahydro-1H-pyrrolo[3,2-c]quinolin-1-yl]carbonyl}cyclohexyl)acrylamide] | < 0.001
14 | O=C(NCCCO)N[C@@H]1CCCC[C@@H]1C(=O)N1CC[C@@H]2[C@H](c3ccccc3)Nc3ccccc3[C@@H]21 [Example 156, N-(3-Hydroxypropyl)-N′-((1R,2S)-2-{[(3aR,4R,9bR)-4-phenyl-2,3,3a,4,5,9b-hexahydro-1H-pyrrolo[3,2-c]quinolin-1-yl]carbonyl}cyclohexyl)urea] | < 0.01
15 | Cn1ccnc1[C@@H]1Nc2ccccc2[C@H]2[C@@H]1CCN2C(=O)[C@H]1CCCC[C@H]1NC(=O)c1ccccc1 [Example 82, N-((1R,2S)-2-{[(3aR,4R,9bR)-4-(1-Methyl-1H-imidazol-2-yl)-2,3,3a,4,5,9b-hexahydro-1H-pyrrolo[3,2-c]quinolin-1-yl]carbonyl}cyclohexyl)benzamide] | < 0.01
16 | O=C(/C=C/c1c[nH]cn1)N[C@@H]1CCCC[C@@H]1C(=O)N1CC[C@@H]2[C@H](c3ccccc3)Nc3ccccc3[C@@H]21 [Example 128, (2E)-3-(1H-Imidazol-4-yl)-N-((1R,2S)-2-{[(3aR,4R,9bR)-4-phenyl-2,3,3a,4,5,9b-hexahydro-1H-pyrrolo[3,2-c]quinolin-1-yl]carbonyl}cyclohexyl)acrylamide] | < 0.01
17 | CCOC(=O)c1ccc(NC(=O)N[C@@H]2CCCC[C@@H]2C(=O)N2CC[C@@H]3[C@H](c4ccccc4)Nc4ccccc4[C@@H]32)cc1 [Example 159, Ethyl 4-({[((1R,25)-2-{[(3aR,4R,9bR)-4-phenyl-2,3,3a,4,5,9b-hexahydro-1H-pyrrolo[3,2-c]quinolin-1-yl]carbonyl}cyclohexyl)amino]carbonyl}amino)benzoate] | < 0.01
18 | COC[C@@H]1Nc2ccccc2[C@H]2[C@@H]1CCN2C(=O)[C@H]1CCCC[C@H]1NC(=O)c1cccc(N(C)C)c1 [Example 241, 3-(Dimethylamino)-N-((1R,2S)-2-{[(3aR,4R,9bR)-4-(methoxymethyl)-2,3,3a,4,5,9b-hexahydro-1H-pyrrolo[3,2-c]quinolin-1-yl]carbonyl}cyclohexyl)benzamide] | < 0.01
19 | CCOC(=O)CCC(=O)N[C@@H]1CCCC[C@@H]1C(=O)N1CC[C@@H]2[C@H](c3ccccc3)Nc3ccccc3[C@@H]21 [Example 108] | < 0.01
20 | COC[C@@H]1Nc2ccccc2[C@H]2[C@@H]1CCN2C(=O)[C@H]1CCCC[C@H]1NC(=O)Nc1ccc(-n2ccnc2)cc1 [Example 277, N-[4-(1H-Imidazol-1-yl)phenyl]-N′-((1R,2S)-2-{[(3aR,4R,9bR)-4-(methoxymethyl)-2,3,3a,4,5,9b-hexahydro-1H-pyrrolo[3,2-c]quinolin-1-yl]carbonyl}cyclohexyl)urea] | < 0.001
